Source: patent US4070401A, “Method for the preparation of a halogenated aromatic amine” (Mitsui Toatsu Chemicals Inc., priority 1972, dated 1978)

Test: Dissociation constant pKb of the amine additive (Table 1)
Format: physicochemical
Settings: measured at 25° C
Text: The inventors have conducted an extensive study on suppression or inhibition of halogenation reaction which would occur during preparation of a halogenated aromatic amine. As a result, the inventors discovered that when a halogenated aromatic nitro compound is hydrogenated in the presence of a predetermined amount of a platinum catalyst together with an amine selected from the group consisting of an alkylmonoamine, an alicyclic amine and a polyalkylenepolyamine, the dehalogenation may be suppressed to a minimum. The present invention has been completed on the basis of this discovery. The alkylmonoamine, alicyclic amine and polyalkylenepolyamine have common properties that they are an organic nitrogen-containing base having a dissociation constant pKb lower than 4.2. The dissociation constant herein described means that which is defined according to the dissociation equilibrium of the usual acid or base, i.e., when an organic nitrogen-containing base is expressed by RN, the dissociation equilibrium of RN is expressed by a formula
RN + H2 O .revreaction. RNH^+ + OH^-
and the dissociation constant is defined as follows [formula] where [ ]means activity.
Though the dissociation constant pKb is generally more or less varied with temperature, the pKb value is measured at 25° C herein.

For CC(C)N [isopropylamine], the “Dissociation Constant pKb” value was 3.4.
For CN [methylamine], the “Dissociation Constant pKb” value was 3.4.
